Measurements: PMC2994807 (Biochemistry, 2010)

What was measured:
[1] = target: dialkylglycine decarboxylase (DGD); WT DGD (Burkholderia cepacia, UniProt P16932, M141R/W138F); test: biochemical
[2] = target: dialkylglycine decarboxylase (DGD); WT DGD (Burkholderia cepacia, UniProt P16932, W138F); test: biochemical

SMILES | Ki [1] | Ki [2]
N[C@H](CCC(=O)O)C(=O)O [D-glutamate] | 89 mM | –
N[C@@H](C(=O)O)c1ccccc1 [D-phenylglycine] | – | 50 mM
